Test results as given in ChEMBL document CHEMBL4011635 (J Med Chem, 2017).
Converted amounts (≈) assume the structure as drawn. The source made the active and inactive calls. The rule behind the calls is not given here.

Assays:
[1] = Apparent permeability from basolateral to apical side in human Caco2 cells; format: ADME, cell-based; conditions: Caco-2
[2] = Aqueous equilibrium solubility of compound in pH 6.8 solution by high throughput assay; format: physicochemical; conditions: aqueous pH 6.8 solution
in vitro = conditions: human, Caco-2
[3] = Protein binding in human plasma; format: ADME, cell-free; conditions: read-out: PPB (converted)
Salmonella typhimurium = assay: Genotoxicity in Salmonella typhimurium by Ames test; format: toxicity; conditions: salmonella enterica subsp. enterica serovar typhimurium
[4] = AUC (0 to 8 hrs) in Sprague-Dawley rat plasma at 10 mg/kg, po by LC-MS/MS analysis; format: ADME, organism-based; parameters: dose 10 mg/kg, time < 8 hr, route oral
[5] = Clearance in Sprague-Dawley rat at 1 mg/kg, iv administered as bolus dose by LC-MS/MS analysis; format: ADME, organism-based; conditions: in vivo
[6] = Cmax in Sprague-Dawley rat plasma at 10 mg/kg, po by LC-MS/MS analysis; format: ADME, organism-based; parameters: dose 10 mg/kg, route oral
Lymphocyte = assay: Genotoxicity in human primary lymphocytes by micronucleus test; format: toxicity, cell-based
[7] = Terminal half life in Sprague-Dawley rat at 1 mg/kg, iv administered as bolus dose by LC-MS/MS analysis; format: ADME, organism-based; conditions: in vivo, read-out: beta t1/2 (converted)
[8] = Oral bioavailability in Sprague-Dawley rat at 10 mg/kg by LC-MS/MS analysis; format: ADME, organism-based; conditions: in vivo
Cytochrome P450 2D6 = Cytochrome P450 2D6 (Homo sapiens, UniProt P10635)
Cynomolgus monkey [9] = assay: In vivo inhibition of complement factor D in cynomolgus monkey assessed as decrease in zymosan-induced AP activation by measuring soluble MAC complex deposition in serum administered as single dose via oral gavage measured at 4 to 24 hrs post dose; format: functional, organism-based; conditions: Macaca fascicularis
Cynomolgus monkey [10] = assay: In vivo inhibition of complement factor D in cynomolgus monkey assessed as serum concentration required to show complete reduction in zymosan-induced AP activation by measuring soluble MAC complex deposition at 10 to 50 mg/kg, po administered as single dose via gavage measured at 4 to 24 hrs post dose by LC-MS analysis; format: functional, Macaca fascicularis
Cytochrome P450 3A4 = Cytochrome P450 3A4 (Homo sapiens, UniProt P08684)
[11] = target: Voltage-gated inwardly rectifying potassium channel KCNH2 (Homo sapiens, UniProt Q12809)
Mus musculus [12] = assay: In vivo inhibition of Ba generation in plasma of B6-Cfdtm1.1(CFD)Npa mouse at 30 mg/kg, po administered via gavage treated up to 24 hrs prior to test and LPS challenge up to 7.5 hrs prior to test measured up to 8 hrs; format: functional, organism-based
Mus musculus [13] = assay: In vivo inhibition of complement activation in B6-Cfdtm1.1(CFD)Npa mouse assessed as decrease iC3b generation in eyes at 30 mg/kg, po administered via gavage treated up to 24 hrs prior to test and LPS challenge up to 7.5 hrs prior to test measured up to 12 hrs; format: functional, organism-based
Cytochrome P450 2C9 = Cytochrome P450 2C9 (Homo sapiens, UniProt P11712)
Mus musculus [14] = assay: In vivo inhibition of complement activation in B6-Cfdtm1.1(CFD)Npa mouse assessed as decrease C3d generation in eyes at 30 mg/kg, po administered via gavage treated up to 24 hrs prior to test and LPS challenge up to 7.5 hrs prior to test measured up to 12 hrs; format: functional, organism-based
[15] = Drug uptake in Brown Norway rat neural retina at 10 mg/kg, po administered as single dose via gavage after 6 hrs by LC-MS/MS analysis; format: ADME, organism-based; conditions: read-out: Drug uptake
Cynomolgus monkey [16] = assay: In vivo inhibition of complement factor D in cynomolgus monkey assessed as decrease in zymosan-induced AP activation by measuring soluble MAC complex deposition in serum at 10 to 50 mg/kg, po administered as single dose via gavage measured 4 hrs post dose; format: functional, organism-based; conditions: Macaca fascicularis
[17] = Drug uptake in Brown Norway rat posterior eye cup at 10 mg/kg, po administered as single dose via gavage after 6 hrs by LC-MS/MS analysis; format: ADME, organism-based; conditions: read-out: Drug uptake
[18] = Drug uptake in Brown Norway rat plasma at 10 mg/kg, po administered as single dose via gavage after 6 hrs by HPLC-MS/MS analysis; format: ADME, organism-based
Complement factor D = Complement factor D (Homo sapiens, UniProt P00746); assay: Inhibition of recombinant human complement factor D catalytic domain (G24 to A253 residues) expressed in expressed in Escherichia coli(Rosetta) using Z-Lys-thiobenzylester as substrate preincubated for 1 hr followed by substrate addition by 2,4-dinitrobenzenesulfonyl-2,7-desmethyl-fluorecein probe based spectrofluorimetric assay

Row | SMILES | Papp B→A [1] | solubility thermodynamic [2] | Papp A→B (in vitro) | fraction unbound [3] | further results
1 | NC(=O)n1cc(NC(=O)N2C[C@H](F)C[C@H]2C(=O)Nc2cccc(OC(F)(F)F)c2)c2ccccc21 | 8 ×10⁻⁶ cm/s | 7 µM (≈ 3.45 µg/mL) | 0.75 ×10⁻⁶ cm/s | – | –
2 | NC(=O)c1cn(CC(=O)N2[C@@H]3C[C@@H]3C[C@H]2C(=O)Nc2cccc(Br)n2)c2ccccc12 | – | – | – | 0.131 | –
3 | NC(=O)n1cc(NC(=O)N2C[C@@H](O)C[C@H]2C(=O)Nc2cccc(OC(F)(F)F)c2)c2ccccc21 | 17 ×10⁻⁶ cm/s | 23 µM (≈ 11.3 µg/mL) | 0.77 ×10⁻⁶ cm/s | – | –
4 | NC(=O)n1cc(NC(=O)N2[C@@H]3C[C@@H]3C[C@H]2C(=O)Nc2cccc(Br)n2)c2ccccc21 | 10.3 ×10⁻⁶ cm/s | 57 µM (≈ 27.5 µg/mL) | 9.6 ×10⁻⁶ cm/s | 0.036 | –
5 | NC(=O)n1cc(NC(=O)N2[C@@H]3C[C@@H]3C[C@H]2C(=O)Nc2cccc(OC(F)(F)F)c2)c2ccccc21 | 5.7 ×10⁻⁶ cm/s | 77 µM (≈ 37.5 µg/mL) | 4.5 ×10⁻⁶ cm/s | – | –
6 | NC(=O)n1cc(NC(=O)N2[C@@H]3C[C@@H]3C[C@H]2C(=O)Nc2cccc(C(F)(F)F)n2)c2ccccc21 | 14.2 ×10⁻⁶ cm/s | 110 µM (≈ 52 µg/mL) | 11.3 ×10⁻⁶ cm/s | 0.048 | –
7 | NC(=O)n1cc(NC(=O)N2C[C@@H](N)C[C@H]2C(=O)Nc2cccc(OC(F)(F)F)c2)c2ccccc21 | 5.1 ×10⁻⁶ cm/s | 280 µM (≈ 137 µg/mL) | 2.1 ×10⁻⁶ cm/s | – | –
8 | NC(=O)n1cc(NC(=O)N2[C@@H]3C[C@@H]3C[C@H]2C(=O)Nc2cccc(OC(F)(F)F)c2F)c2ccccc21 | 6.5 ×10⁻⁶ cm/s | 10 µM (≈ 5.05 µg/mL) | 5.1 ×10⁻⁶ cm/s | – | –
9 | NC(=O)n1cc(NC(=O)N2CCC[C@H]2C(=O)Nc2cccc(OC(F)(F)F)c2)c2ccccc21 | 6.3 ×10⁻⁶ cm/s | 17 µM (≈ 8.08 µg/mL) | 6.1 ×10⁻⁶ cm/s | – | Activity (Salmonella typhimurium): Non-Toxic; AUC(0-t) at 8 h [4]: 4.99 µM·h; clearance [5]: 21 mL/min/kg; Cmax [6]: 1170 nM; Activity (Lymphocyte): Non-Toxic; half-life [7]: 1.4 h; bioavailability [8]: 25%
10 | NC(=O)c1nn(CC(=O)N2[C@@H]3C[C@@H]3C[C@H]2C(=O)Nc2cccc(Br)n2)c2ccccc12 | 18.1 ×10⁻⁶ cm/s | 170 µM (≈ 82.2 µg/mL) | 15.3 ×10⁻⁶ cm/s | 0.08 | IC50 (Cytochrome P450 2D6): > 20 µM; EC50 (Cynomolgus monkey [9]): 0.038 µM; Activity (Salmonella typhimurium): Non-Toxic; INH (Cynomolgus monkey [10]): >0.5 µM; IC50 (Cytochrome P450 3A4): 17 µM; IC50 [11]: > 30 µM; inhibition (Mus musculus [12]): Active; inhibition (Mus musculus [13]): Active; IC50 (Cytochrome P450 2C9): > 20 µM; inhibition (Mus musculus [14]): Active; Activity (Lymphocyte): Non-Toxic; concentration at 6 h [15]: 90 nM; inhibition (Cynomolgus monkey [16]): Active; concentration at 6 h [17]: 430 nM; concentration at 6 h [18]: 360 nM
11 | NC(=O)n1cc(NC(=O)N2[C@@H]3C[C@@H]3C[C@H]2C(=O)Nc2cccc(C(F)(F)F)c2F)c2ccccc21 | 7 ×10⁻⁶ cm/s | 46 µM (≈ 22.5 µg/mL) | 10 ×10⁻⁶ cm/s | < 0.01 | –
12 | Cn1cc(NC(=O)N2CCC[C@H]2C(=O)Nc2cccc(OC(F)(F)F)c2)c2ccccc21 | – | – | – | – | IC50 (Complement factor D): 20 µM
